pIC50: −log10 of the molar value.
Target: PI3K delta (Homo sapiens, UniProt O00329)
Experiment: Luciferase-coupled chemiluminescence kinase assay (ATP consumption, KinaseGlo)
Type: biochemical
How it was run: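 Compound, kinase and ATP (≤ KM) reacted 2 h at ambient temperature, then remaining ATP quantified with luciferase-luciferin (KinaseGlo) luminescence as percent consumed.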

PI3K delta, sequence (O00329 whole entry): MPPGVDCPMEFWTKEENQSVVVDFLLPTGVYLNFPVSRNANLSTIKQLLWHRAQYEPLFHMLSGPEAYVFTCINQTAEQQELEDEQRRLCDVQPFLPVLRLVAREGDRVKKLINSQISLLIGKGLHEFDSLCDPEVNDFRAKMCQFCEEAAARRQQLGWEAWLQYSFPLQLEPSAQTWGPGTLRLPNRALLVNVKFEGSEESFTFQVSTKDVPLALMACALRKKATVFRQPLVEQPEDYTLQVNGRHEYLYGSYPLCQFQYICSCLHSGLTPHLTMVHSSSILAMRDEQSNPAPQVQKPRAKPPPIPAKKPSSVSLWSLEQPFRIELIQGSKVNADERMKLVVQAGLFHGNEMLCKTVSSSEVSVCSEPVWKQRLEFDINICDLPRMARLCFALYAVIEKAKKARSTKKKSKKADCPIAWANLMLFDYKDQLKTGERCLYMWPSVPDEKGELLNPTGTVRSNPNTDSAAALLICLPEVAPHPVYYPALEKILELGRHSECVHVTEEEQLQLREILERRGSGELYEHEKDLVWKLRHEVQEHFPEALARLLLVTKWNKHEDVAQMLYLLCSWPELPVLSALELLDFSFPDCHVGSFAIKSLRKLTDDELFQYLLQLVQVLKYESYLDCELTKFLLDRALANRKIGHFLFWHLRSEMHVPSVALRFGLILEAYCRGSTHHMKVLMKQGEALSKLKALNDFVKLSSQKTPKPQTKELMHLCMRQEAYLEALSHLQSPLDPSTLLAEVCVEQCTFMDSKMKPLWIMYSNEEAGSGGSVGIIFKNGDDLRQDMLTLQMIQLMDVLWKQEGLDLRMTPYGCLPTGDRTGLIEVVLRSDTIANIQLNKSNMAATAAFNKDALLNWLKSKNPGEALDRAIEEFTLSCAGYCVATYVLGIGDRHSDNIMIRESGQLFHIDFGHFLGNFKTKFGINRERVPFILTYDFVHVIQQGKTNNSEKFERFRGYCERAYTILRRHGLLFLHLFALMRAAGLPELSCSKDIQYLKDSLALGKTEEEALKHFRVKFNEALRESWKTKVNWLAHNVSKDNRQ
PI3K delta, sequence (P27986 whole entry partner): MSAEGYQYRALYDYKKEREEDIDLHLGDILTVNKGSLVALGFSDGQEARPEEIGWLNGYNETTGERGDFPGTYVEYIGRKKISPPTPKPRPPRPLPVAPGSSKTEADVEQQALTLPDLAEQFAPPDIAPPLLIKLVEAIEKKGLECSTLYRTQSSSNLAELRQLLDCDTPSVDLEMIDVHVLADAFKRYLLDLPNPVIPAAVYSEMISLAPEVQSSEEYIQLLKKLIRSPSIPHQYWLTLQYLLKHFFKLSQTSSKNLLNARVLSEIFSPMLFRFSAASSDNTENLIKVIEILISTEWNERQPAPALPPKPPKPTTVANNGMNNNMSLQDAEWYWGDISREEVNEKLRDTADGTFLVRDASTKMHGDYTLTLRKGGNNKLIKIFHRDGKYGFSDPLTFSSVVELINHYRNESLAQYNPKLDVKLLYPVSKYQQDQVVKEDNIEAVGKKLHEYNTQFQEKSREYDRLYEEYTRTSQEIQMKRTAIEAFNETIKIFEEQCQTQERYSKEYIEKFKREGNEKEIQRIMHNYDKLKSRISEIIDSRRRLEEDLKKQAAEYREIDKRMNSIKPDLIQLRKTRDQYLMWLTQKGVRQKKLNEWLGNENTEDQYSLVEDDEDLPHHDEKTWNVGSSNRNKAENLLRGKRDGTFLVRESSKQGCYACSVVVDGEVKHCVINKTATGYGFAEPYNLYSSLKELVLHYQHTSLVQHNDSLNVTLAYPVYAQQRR

pIC50	SMILES
> 7.30	CCn1c(C(=O)N[C@H]2CC[C@H](O)CC2)nc2c(N3CCC4(CC3)C(=O)Nc3ccccc34)ncnc21 [Compound 159, 9-ethyl-N-(trans-4-hydroxycyclohexyl)-6-(2-oxo-1,2-dihydro-1′H-spiro[indole-3,4′-piperidin]-1′-yl)-9H-purine-8-carboxamide]
5.82 to 6.30	Cc1nc2c(N3CCC(n4c(=O)[nH]c5ccccc54)CC3)ncnc2n1C [Compound 81, 1-[1-(8,9-Dimethyl-9H-purin-6-yl)piperidin-4-yl]-1,3-dihydro-2H-benzimidazol-2-one]
5.82 to 6.30	Cn1c(N2CCCC2)nc2c(N3CCC(n4c(=O)[nH]c5ccccc54)CC3)ncnc21 [Compound 126, 1-[1-(9-methyl-8-pyrrolidin-1-yl-9H-purin-6-yl)piperidin-4-yl]-1,3-dihydro-2H-benzimidazol-2-one]
> 7.30	CCn1cc(-c2nc3c(N4CCC(n5c(=O)[nH]c6ccccc65)CC4)ncnc3n2CC)cn1 [Compound 244, 1-{1-[9-ethyl-8-(1-ethyl-1H-pyrazol-4-yl)-9H-purin-6-yl]piperidin-4-yl}-1,3-dihydro-2H-benzimidazol-2-one]
6.60 to 7.30	Cn1c(-c2cnn(CCO)c2)nc2c(N3CCC(n4c(=O)[nH]c5ccccc54)CC3)ncnc21 [Compound 178, 1-{1-(8-[1-(2-hydroxyethyl)-1H-pyrazol-4-yl]-9-methyl-9H-purin-6-yl}piperidin-4-yl)-1,3-dihydro-2H-benzimidazol-2-one]
5.82 to 6.30	CC(NC(=O)c1nc2c(N3CCC4(CC3)C(=O)Nc3ccccc34)ncnc2n1C)c1ccccc1 (stereo not shown) [Compound 23, 9-methyl-6-(2-oxo-1,2-dihydro-1′H-spiro[indole-3,4′-piperidin]-1′-yl)-N-(1-phenylethyl)-9H-purine-8-carboxamide]
6.30 to 6.60	Cn1c(-c2ccncn2)nc2c(N3CCC(n4c(=O)[nH]c5ccccc54)CC3)ncnc21 [Compound 298, 1-[1-(9-methyl-8-pyrimidin-4-yl-9H-purin-6-yl)piperidin-4-yl]-1,3-dihydro-2H-benzimidazol-2-one]
6.60 to 7.30	Cn1c(-c2ccnnc2)nc2c(N3CCC4(CC3)C(=O)Nc3ccccc34)ncnc21 [Compound 313, 1′-(9-methyl-8-pyridazin-4-yl-9H-purin-6-yl)spiro[indole-3,4′-piperidin]-2(1H)-one]
5.82 to 6.30	CC(=O)c1ccc(S(=O)(=O)N2CCN(c3ncnc4c3nc(-c3cnn(C)c3)n4C)CC2)cc1 [Compound 384, 1-[4-({4-[9-methyl-8-(1-methyl-1H-pyrazol-4-yl)-9H-purin-6-yl]piperazin-1-yl)sulfonyl)phenyl]ethanone]
> 7.30	CCn1c(C(=O)NCC2CC2)nc2c(N3CCC(n4c(=O)[nH]c5ccccc54)CC3)ncnc21 [Compound 97, N-(cyclopropylmethyl)-9-ethyl-6-[4-(2-oxo-2,3-dihydro-1H-benzimidazol-1-yl)piperidin-1-yl]-9H-purine-8-carboxamide]
6.30 to 6.60	Cn1cc(-c2nc3c(N4CCC(c5c[nH]c6ccccc56)CC4)ncnc3n2C)cn1 [Compound 351, 6-[4-(1H-indol-3-yl)piperidin-1-yl]-9-methyl-8-(1-methyl-1H-pyrazol-4-yl)-9H-purine]
6.30 to 6.60	Cn1c(C(=O)NCC2CC2)nc2c(N3CCCC(n4c(=O)[nH]c5ccccc54)C3)ncnc21 (stereo not shown) [Compound 256, N-(cyclopropylmethyl)-9-methyl-6-[3-(2-oxo-2,3-dihydro-1H-benzimidazol-1-yl)piperidin-1-yl]-9H-purine-8-carboxamide]
> 7.30	CCCn1cc(-c2nc3c(N4CCC5(CC4)C(=O)Nc4ccccc45)ncnc3n2C)cn1 [Compound 234, 1′-[9-methyl-8-(1-propyl-1H-pyrazol-4-yl)-9H-purin-6-yl]spiro[indole-3,4′-piperidin]-2(1H)-one]
5.82 to 6.30	CC(C)N(C)C(=O)c1nc2c(N3CCC4(CC3)C(=O)Nc3ccccc34)ncnc2n1C [Compound 38, N,9-dimethyl-N-(1-methylethyl)-6-(2-oxo-1,2-dihydro-1′H-spiro[indole-3,4′-piperidin]-1′-yl)-9H-purine-8-carboxamide]
5.82 to 6.30	Cn1c(C(=O)NCc2ccc(F)cc2F)nc2c(N3CCC4(CC3)C(=O)Nc3ccccc34)ncnc21 [Compound 33, N-[(2,4-difluorophenyl)methyl]-9-methyl-6-(2-oxo-1,2-dihydro-1′H-spiro[indole-3,4′-piperidin]-1′-yl)-9H-purine-8-carboxamide]
> 7.30	Cn1c(C(=O)NCC2CCOCC2)nc2c(N3CCC(n4c(=O)[nH]c5ccccc54)CC3)ncnc21 [Compound 5, 9-methyl-6-[4-(2-oxo-2,3-dihydro-1H-benzimidazol-1-yl)piperidin-1-yl]-N-(tetrahydro-2H-pyran-4-ylmethyl)-9H-purine-8-carboxamide]
> 7.30	Cc1[nH]ncc1-c1nc2c(N3CCC4(CC3)C(=O)Nc3ccccc34)ncnc2n1C [Compound 247, 1′-[9-methyl-8-(5-methyl-1H-pyrazol-4-yl)-9H-purin-6-yl]spiro[indole-3,4′-piperidin]-2(1H)-one]
6.60 to 7.30	CCn1cc(-c2nc3c(N4CCN(S(=O)(=O)c5ccccc5)CC4)ncnc3n2C)cn1 [Compound 367, 8-(1-ethyl-1H-pyrazol-4-yl)-9-methyl-6-[4-(phenylsulfonyl)piperazin-1-yl]-9H-purine]
> 7.30	CN(C)c1ccc(-c2nc3c(N4CCC(n5c(=O)[nH]c6ncccc65)CC4)ncnc3n2C)cn1 [Compound 365, 1-(1-{8-[6-(dimethylamino)pyridin-3-yl]-9-methyl-9H-purin-6-yl}piperidin-4-yl)-1,3-dihydro-2H-imidazo[4,5-b]pyridin-2-one]
6.60 to 7.30	Cn1c(C(=O)NCc2cccs2)nc2c(N3CCC(n4c(=O)[nH]c5ccccc54)CC3)ncnc21 [Compound 49, 9-methyl-6-[4-(2-oxo-2,3-dihydro-1H-benzimidazol-1-yl)piperidin-1-yl]-N-(2-thienylmethyl)-9H-purine-8-carboxamide]
> 7.30	CCCCNC(=O)c1nc2c(N3CCC4(CC3)C(=O)Nc3ccccc34)ncnc2n1CC [Compound 162, N-butyl-9-ethyl-6-(2-oxo-1,2-dihydro-1′H-spiro[indole-3,4′-piperidin]-1′-yl)-9H-purine-8-carboxamide]
5.82 to 6.30	CN1C(=O)C2(CCN(c3ncnc4c3nc(C(=O)NCC3CC3)n4C)CC2)c2ccccc21 [Compound 141, N-(cyclopropylmethyl)-9-methyl-6-(1-methyl-2-oxo-1,2-dihydro-1′H-spiro[indole-3,4′-piperidin]-1′-yl)-9H-purine-8-carboxamide]
5.82 to 6.30	Cn1c(C(=O)NCCc2ccccc2)nc2c(N3CCC4(CC3)C(=O)Nc3ccccc34)ncnc21 [Compound 395, 9-methyl-6-(2-oxo-1,2-dihydro-1′H-spiro[indole-3,4′-piperidin]-1′-yl)-N-(2-phenylethyl)-9H-purine-8-carboxamide]
6.60 to 7.30	Cn1c(C(=O)NC2CC2)nc2c(N3CCC(n4c(=O)[nH]c5ccccc54)CC3)ncnc21 [Compound 43, N-cyclopropyl-9-methyl-6-[4-(2-oxo-2,3-dihydro-1H-benzimidazol-1-yl)piperidin-1-yl]-9H-purine-8-carboxamide]
> 7.30	CCn1c(C(=O)NCC2CCC2)nc2c(N3CCC4(CC3)C(=O)Nc3ccccc34)ncnc21 [Compound 212, N-(cyclobutylmethyl)-9-ethyl-6-(2-oxo-1,2-dihydro-1′H-spiro[indole-3,4′-piperidin]-1′-yl)-9H-purine-8-carboxamide]
